Tests used:
[1] = test system: mouse model of rheumatoid arthritis; settings: in vivo; cited from earlier work
[2] = test system: model of systemic lupus erythematosis; settings: in vivo; cited from earlier work
[3] = target: T1, PI3Ka (Homo sapiens, UniProt P42336); assay: In vitro enzyme assay, PI3K alpha; assay type: biochemical; settings: for PI3K: a/d: ratio of alpha to delta IC50
T1 construct: Full length p110 subunits of PI3k α, β and δ, N-terminally labeled with polyHis tag; polyHis (N); made in house; host or cells: Sf9 insect cells (baculovirus)
T1 sequence (P42336 whole entry): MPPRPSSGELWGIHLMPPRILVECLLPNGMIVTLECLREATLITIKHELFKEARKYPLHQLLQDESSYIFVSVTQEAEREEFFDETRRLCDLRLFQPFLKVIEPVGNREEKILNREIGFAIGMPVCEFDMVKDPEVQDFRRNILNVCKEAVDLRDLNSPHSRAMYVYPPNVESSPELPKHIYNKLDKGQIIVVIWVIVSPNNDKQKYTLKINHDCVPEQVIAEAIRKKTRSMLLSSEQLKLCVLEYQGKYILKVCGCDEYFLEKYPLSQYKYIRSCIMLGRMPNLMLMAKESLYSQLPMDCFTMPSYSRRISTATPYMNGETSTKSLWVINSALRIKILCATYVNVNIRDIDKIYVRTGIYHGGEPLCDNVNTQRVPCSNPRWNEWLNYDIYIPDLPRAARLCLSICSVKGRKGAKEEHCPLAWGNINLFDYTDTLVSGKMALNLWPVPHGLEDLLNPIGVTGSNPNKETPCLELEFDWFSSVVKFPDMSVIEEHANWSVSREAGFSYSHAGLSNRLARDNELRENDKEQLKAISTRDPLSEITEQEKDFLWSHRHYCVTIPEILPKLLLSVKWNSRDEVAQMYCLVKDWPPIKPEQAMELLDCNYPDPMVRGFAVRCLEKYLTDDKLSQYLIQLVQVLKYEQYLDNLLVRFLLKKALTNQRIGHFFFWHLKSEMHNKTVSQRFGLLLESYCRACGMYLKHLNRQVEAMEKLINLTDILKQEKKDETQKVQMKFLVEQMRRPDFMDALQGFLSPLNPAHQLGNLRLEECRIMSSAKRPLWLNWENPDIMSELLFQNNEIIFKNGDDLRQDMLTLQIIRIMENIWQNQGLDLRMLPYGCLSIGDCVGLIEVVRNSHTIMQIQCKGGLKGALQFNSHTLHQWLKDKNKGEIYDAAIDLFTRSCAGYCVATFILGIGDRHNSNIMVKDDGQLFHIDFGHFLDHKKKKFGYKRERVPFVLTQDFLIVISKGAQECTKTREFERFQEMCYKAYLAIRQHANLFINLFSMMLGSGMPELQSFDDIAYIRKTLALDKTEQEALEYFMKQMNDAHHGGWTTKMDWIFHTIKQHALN
T1 sequence (P27986 whole entry partner): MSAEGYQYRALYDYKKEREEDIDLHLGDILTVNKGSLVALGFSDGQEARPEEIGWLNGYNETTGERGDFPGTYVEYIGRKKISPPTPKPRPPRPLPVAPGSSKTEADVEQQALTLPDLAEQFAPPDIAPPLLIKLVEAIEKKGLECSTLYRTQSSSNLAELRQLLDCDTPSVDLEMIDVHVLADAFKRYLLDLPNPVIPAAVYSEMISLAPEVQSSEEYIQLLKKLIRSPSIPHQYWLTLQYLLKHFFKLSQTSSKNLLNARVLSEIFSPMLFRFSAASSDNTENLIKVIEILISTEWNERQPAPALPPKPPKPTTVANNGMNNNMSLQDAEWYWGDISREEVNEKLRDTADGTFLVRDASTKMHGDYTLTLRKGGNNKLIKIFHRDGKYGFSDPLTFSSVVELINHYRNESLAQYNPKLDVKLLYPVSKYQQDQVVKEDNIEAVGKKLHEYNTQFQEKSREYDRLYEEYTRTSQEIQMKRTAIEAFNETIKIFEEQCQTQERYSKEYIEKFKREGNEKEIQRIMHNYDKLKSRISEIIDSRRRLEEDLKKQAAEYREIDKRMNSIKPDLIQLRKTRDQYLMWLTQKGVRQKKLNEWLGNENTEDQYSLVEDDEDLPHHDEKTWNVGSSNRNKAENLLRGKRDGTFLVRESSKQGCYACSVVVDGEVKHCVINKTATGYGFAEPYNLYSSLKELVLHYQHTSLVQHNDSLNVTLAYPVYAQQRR
Method: (§1) Full length p110 subunits of PI3k α, β and δ, N-terminally labeled with polyHis tag, were coexpressed with p85 with Baculo virus expression vectors in sf9 insect cells. P110/p85 heterodimers were purified by sequential Ni-NTA, Q-HP, Superdex-100 chromatography. Purified α, β and δ isozymes were stored at −20° C. in 20 mM Tris, pH 8, 0.2M NaCl, 50% glycerol, 5 mM DTT, 2 mM Na cholate. Truncated PI3Kγ, residues 114-1102, N-terminally labeled with polyHis tag, was expressed with Baculo virus in Hi5 insect cells. The γ isozyme was purified by sequential Ni-NTA, Superdex-200, Q-HP chromatography. The γ isozyme was stored frozen at −80° C. in NaH2PO4, pH 8, 0.2M NaCl, 1% ethylene glycol, 2 mM β-mercaptoethanol.
(§2) Assays were performed in 25 μL with the above final concentrations of components in white polyproplyene plates (Costar 3355). Phospatidyl inositol phosphoacceptor, PtdIns(4,5)P2 P4508, was from Echelon Biosciences. The ATPase activity of the alpha and gamma isozymes was not greatly stimulated by PtdIns(4,5)P2 under these conditions and was therefore omitted from the assay of these isozymes. Test compounds were dissolved in dimethyl sulfoxide and diluted with three-fold serial dilutions. The compound in DMSO (1 μL) was added per test well, and the inhibition relative to reactions containing no compound, with and without enzyme was determined After assay incubation at rt, the reaction was stopped and residual ATP determined by addition of an equal volume of a commercial ATP bioluminescence kit (Perkin Elmer EasyLite) according to the manufacturer's instructions, and detected using a AnalystGT luminometer.

[4] = target: T2, PI3Kb (Homo sapiens, UniProt P42338); assay: PI3Kb MB MDA468 cell assay; assay type: cell-based; parameters: endogenous in cells; host or cells: MDA MB468 (Forkhead-DiversaGFP) cells; settings: second value of the cell; read-out: PI3KbMBMDA468
[5] = target: T3, PI3K d (Homo sapiens, UniProt O00329); assay: In vitro enzyme assay, PI3K delta; assay type: biochemical
T3 construct: Full length p110 subunits of PI3k α, β and δ, N-terminally labeled with polyHis tag; polyHis (N); made in house; host or cells: Sf9 insect cells (baculovirus)
T3 sequence (O00329 whole entry): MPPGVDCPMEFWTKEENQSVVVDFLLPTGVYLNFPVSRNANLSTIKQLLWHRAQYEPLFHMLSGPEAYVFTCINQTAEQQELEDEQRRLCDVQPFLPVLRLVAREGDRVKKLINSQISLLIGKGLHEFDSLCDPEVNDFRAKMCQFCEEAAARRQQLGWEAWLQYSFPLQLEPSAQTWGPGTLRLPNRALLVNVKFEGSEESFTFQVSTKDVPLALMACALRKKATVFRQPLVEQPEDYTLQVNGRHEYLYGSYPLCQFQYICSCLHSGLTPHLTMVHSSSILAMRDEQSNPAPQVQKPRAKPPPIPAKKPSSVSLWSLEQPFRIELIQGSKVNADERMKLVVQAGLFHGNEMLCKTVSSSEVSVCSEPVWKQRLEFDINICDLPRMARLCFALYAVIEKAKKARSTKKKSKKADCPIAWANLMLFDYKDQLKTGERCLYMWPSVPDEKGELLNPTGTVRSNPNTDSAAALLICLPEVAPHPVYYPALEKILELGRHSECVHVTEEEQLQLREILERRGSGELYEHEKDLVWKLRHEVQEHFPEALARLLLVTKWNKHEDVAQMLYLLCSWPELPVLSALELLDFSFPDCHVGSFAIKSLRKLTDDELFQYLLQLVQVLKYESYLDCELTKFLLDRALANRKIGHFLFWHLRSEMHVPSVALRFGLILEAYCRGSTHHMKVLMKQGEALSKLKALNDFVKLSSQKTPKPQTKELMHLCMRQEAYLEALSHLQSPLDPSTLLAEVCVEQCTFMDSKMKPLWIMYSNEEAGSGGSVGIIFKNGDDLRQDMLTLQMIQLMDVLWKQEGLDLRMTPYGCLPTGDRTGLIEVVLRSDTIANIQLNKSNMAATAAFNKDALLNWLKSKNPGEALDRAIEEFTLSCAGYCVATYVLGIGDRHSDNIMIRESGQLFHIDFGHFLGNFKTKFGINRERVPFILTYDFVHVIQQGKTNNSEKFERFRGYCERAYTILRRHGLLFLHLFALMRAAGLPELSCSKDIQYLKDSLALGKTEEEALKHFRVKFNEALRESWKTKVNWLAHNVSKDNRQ
T3 sequence (P27986 whole entry partner): as the sequence (P27986 whole entry partner) above
Method: as §1, §2

[6] = target: T4, PI3Kg (Homo sapiens, UniProt P48736); assay: In vitro enzyme assay, PI3K gamma; assay type: biochemical; settings: for PI3K: g/d: ratio of gamma to delta IC50
T4 construct: Truncated PI3Kγ, residues 114-1102, N-terminally labeled with polyHis tag; polyHis (N); made in house; host or cells: Hi5 insect cells (baculovirus)
T4 sequence (P48736 114-1102): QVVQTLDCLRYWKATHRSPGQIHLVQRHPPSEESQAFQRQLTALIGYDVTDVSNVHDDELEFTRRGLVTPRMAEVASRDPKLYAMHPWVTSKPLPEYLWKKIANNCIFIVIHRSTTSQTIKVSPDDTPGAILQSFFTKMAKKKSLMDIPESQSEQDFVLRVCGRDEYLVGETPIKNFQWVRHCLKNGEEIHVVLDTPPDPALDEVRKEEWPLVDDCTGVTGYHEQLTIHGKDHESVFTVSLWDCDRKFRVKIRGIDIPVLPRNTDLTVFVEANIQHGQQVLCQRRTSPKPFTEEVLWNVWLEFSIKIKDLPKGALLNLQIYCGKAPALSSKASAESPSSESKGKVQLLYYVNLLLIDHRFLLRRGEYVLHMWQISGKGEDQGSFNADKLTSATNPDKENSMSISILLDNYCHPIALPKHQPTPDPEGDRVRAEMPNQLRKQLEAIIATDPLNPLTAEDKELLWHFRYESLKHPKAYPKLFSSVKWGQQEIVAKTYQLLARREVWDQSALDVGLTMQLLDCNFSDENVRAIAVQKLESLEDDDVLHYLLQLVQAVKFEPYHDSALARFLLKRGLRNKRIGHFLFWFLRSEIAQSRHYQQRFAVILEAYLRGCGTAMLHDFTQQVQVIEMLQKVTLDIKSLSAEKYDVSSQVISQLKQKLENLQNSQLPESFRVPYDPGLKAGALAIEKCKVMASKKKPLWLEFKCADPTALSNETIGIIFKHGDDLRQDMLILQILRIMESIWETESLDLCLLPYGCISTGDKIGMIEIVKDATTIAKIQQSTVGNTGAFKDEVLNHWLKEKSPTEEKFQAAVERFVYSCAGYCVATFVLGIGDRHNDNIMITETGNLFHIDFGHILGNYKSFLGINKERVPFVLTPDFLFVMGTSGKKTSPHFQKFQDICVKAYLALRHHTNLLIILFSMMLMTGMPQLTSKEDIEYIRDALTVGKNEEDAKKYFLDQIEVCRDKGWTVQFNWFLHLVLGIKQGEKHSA
Method: as §1, §2

[7] = test system: mu splenocytes pAKT; assay: on target anti-IgM mu splenocytes pAKT; assay type: cell-based; settings: Mus musculus, Splenocyte, read-out: on target anti-IgM mu splenocytes pAKT (Hu splenocytes PAKT)
[8] = target: T2, PI3Kb; assay: In vitro enzyme assay, PI3K beta; assay type: biochemical; parameters: Full length p110 subunits of PI3k α, β and δ, N-terminally labeled with polyHis tag; polyHis (N); made in house; host or cells: Sf9 insect cells (baculovirus); settings: read-out: P13K b IC50
Method: as §1, §2

[9] = target: T2, PI3Kb; assay: Forkhead translocation assay (MDA MB468 Forkhead-DiversaGFP cells); assay type: cell-based; parameters: endogenous in cells; host or cells: MDA MB468 (Forkhead-DiversaGFP) cells; settings: first value of the cell; MDA468 forkhead; read-out: PI3KbMDA468 FH
Method: (§3) GFP Assays for Detecting Inhibition of Class Ia and Class III PI3K
Forkhead (FKHRL1) is a substrate for AKT1. It is cytoplasmic when phosphorylated by AKT (survival/growth). Inhibition of AKT (stasis/apoptosis)-forkhead translocation to the nucleus
Forkhead Translocation Assay (MDA MB468 Forkhead-DiversaGFP Cells)
Treat cells with compound in growth medium 1 h. Fix and image.

[10] = target: T5, PI3KIII (Homo sapiens, UniProt Q8NEB9); assay: Class III PI(3)P assay (U20S EGFP-2XFYVE cells); assay type: cell-based
T5 construct: host or cells: U2OS EGFP-2XFYVE cells
T5 sequence (Q8NEB9 whole entry): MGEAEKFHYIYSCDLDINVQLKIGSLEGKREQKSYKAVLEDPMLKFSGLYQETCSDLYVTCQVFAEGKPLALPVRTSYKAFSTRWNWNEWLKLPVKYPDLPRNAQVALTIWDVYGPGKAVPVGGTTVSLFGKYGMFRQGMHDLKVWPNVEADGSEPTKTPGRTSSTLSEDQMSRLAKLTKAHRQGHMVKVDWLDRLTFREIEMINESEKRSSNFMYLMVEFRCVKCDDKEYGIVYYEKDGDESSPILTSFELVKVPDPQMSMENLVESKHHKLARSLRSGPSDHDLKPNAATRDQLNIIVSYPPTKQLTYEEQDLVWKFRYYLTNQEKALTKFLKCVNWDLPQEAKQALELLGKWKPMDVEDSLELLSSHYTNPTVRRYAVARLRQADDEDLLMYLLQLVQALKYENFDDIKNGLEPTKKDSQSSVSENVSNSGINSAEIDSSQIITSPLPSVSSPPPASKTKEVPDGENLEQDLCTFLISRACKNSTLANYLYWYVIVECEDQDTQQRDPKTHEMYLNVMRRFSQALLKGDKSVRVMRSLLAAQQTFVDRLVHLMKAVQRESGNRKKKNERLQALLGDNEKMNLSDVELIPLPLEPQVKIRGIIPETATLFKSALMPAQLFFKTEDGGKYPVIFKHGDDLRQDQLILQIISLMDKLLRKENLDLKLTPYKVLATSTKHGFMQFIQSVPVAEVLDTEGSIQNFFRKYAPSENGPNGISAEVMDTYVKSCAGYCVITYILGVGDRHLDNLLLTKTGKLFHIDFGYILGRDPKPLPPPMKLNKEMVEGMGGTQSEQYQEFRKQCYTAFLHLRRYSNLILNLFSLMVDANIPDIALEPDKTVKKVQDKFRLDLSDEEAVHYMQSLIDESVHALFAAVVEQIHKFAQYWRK
Method: as §3
FYVE domains bind to PI(3)P. the majority is generated by constitutive action of PI3K Class III
Class III PI(3)P assay (U20S EGFP-2XFYVE Cells/GE Healthcare)
Wash cells with assay buffer. Treat with compounds in assay buffer 1 h. Fix and image.
Control for all 3 assays is […] Wortmannin:
PI(3)P depleted from endosomes

[11] = test system: PI3K b; assay: In vitro enzyme assay, PI3K beta; assay type: biochemical; settings: ratio of beta to delta IC50
Method: as §1, §2

[12] = test system: pAKT; assay: pAKT in vivo assay; settings: mice, p.o.; for in vivo pAKT data, ED50 (uM) WB: first value of the cell; for in vivo pAKT data, ED50 (uM) spleenocytes: second value of the cell
Method: Vehicle and compounds are administered p.o. (0.2 mL) by gavage (Oral Gavage Needles Popper & Sons, New Hyde Park, N.Y.) to mice (Transgenic Line 3751, female, 10-12 wks Amgen Inc, Thousand Oaks, Calif.) 15 min prior to the injection i.v (0.2 mLs) of anti-IgM FITC (50 ug/mouse) (Jackson Immuno Research, West Grove, Pa.). After 45 min the mice are sacrificed within a CO2 chamber. Blood is drawn via cardiac puncture (0.3 mL) (1cc 25 g Syringes, Sherwood, St. Louis, Mo.) and transferred into a 15 mL conical vial (Nalge/Nunc International, Denmark). Blood is immediately fixed with 6.0 mL of BD Phosflow Lyse/Fix Buffer (BD Bioscience, San Jose, Calif.), inverted 3X's and placed in 37° C. water bath. Half of the spleen is removed and transferred to an eppendorf tube containing 0.5 mL of PBS (Invitrogen Corp, Grand Island, N.Y.). The spleen is crushed using a tissue grinder (Pellet Pestle, Kimble/Kontes, Vineland, N.J.) and immediately fixed with 6.0 mL of BD Phosflow Lyse/Fix buffer, inverted 3X's and placed in 37° C. water bath. Once tissues have been collected the mouse is cervically-dislocated and carcass to disposed. After 15 min, the 15 mL conical vials are removed from the 37° C. water bath and placed on ice until tissues are further processed. Crushed spleens are filtered through a 70 μm cell strainer (BD Bioscience, Bedford, Mass.) into another 15 mL conical vial and washed with 9 mL of PBS. Splenocytes and blood are spun @ 2,000 rpms for 10 min (cold) and buffer is aspirated. Cells are resuspended in 2.0 mL of cold (−20° C.) 90% methyl alcohol (Mallinckrodt Chemicals, Phillipsburg, N.J.). MeOH is slowly added while conical vial is rapidly vortexed. Tissues are then stored at −20° C. until cells can be stained for FACS analysis.

[13] = test system: protein kinases; settings: cited from earlier work
[14] = target: p110δ (Homo sapiens, UniProt O00329); settings: cited from earlier work
p110δ, sequence (O00329 whole entry, species assumed): as the sequence (O00329 whole entry) above

[15] = test system: murine model of asthma; settings: ovalbumin-induced airway inflammation; cited from earlier work

PI3Ka IC50 [3]	PI3K: a/d [3]	IC50 [4]	IC50 [5]	IC50 [6]	PI3K: g/d [6]	IC50 [7]	IC50 [8]	IC50 [9]	IC50 [10]	PI3K: b/d [11]	SMILES	in vivo pAKT data, ED50 (uM) WB [12]	in vivo pAKT data, ED50 (uM) spleenocytes [12]	other results
											O=C1NC(=O)/C(=C\c2ccc3nccnc3c2)S1 [AS 605240]			efficacy in a mouse model of rheumatoid arthritis [1]: efficacious; onset of disease in a model of systemic lupus erythematosis [2]: delay onset of disease
9980 nM	3327	2600 nM	3 nM	1610 nM	537	2.2 nM	4740 nM	5970 nM	> 10000 nM	1580	C[C@H](Nc1ncnc(N)c1C#N)c1cc2cccc(F)c2nc1-c1ccccc1S(C)(=O)=O [Example 1, 4-amino-6-(((1S)-1-(8-fluoro-2-(2-(methylsulfonyl)phenyl)-3-quinolinyl)-ethyl)amino)-5-pyrimidinecarbonitrile]	0.041 uM	0.010 uM	
7040 nM	903	811 nM	7.8 nM	804 nM	103	1.2 nM	1360 nM	> 10000 nM	> 10000 nM	174	C[C@H](Nc1ncnc(N)c1C#N)c1cc2ccc(F)cc2nc1-c1ccccc1S(C)(=O)=O [Example 2, (S)-4-amino-6-((1-(7-fluoro-2-(2-(methylsulfonyl)phenyl)quinolin-3-yl)ethyl)-amino)pyrimidine-5-carbonitrile]	0.36 uM	0.26 uM	
3420 nM	671	483 nM	5.1 nM	62.9 nM	12	1.5 nM	434 nM	3800 nM	> 10000 nM	85	C[C@H](Nc1ncnc(N)c1C#N)c1cc2ccc(F)cc2nc1-c1cccc(F)c1 [Example 3, 4-amino-6-((S)-1-(7-fluoro-2-(3-fluorophenyl)quinolin-3-yl)ethylamino)-pyrimidine-5-carbonitrile]			
12060 nM	1206	620 nM	10 nM	448 nM	45	1.8 nM	522 nM	1950 nM	> 10000 nM	52	C[C@H](Nc1ncnc(N)c1C#N)c1cc2ccc(F)cc2nc1-c1ccccn1 [Example 4, 4-amino-6-((S)-1-(7-fluoro-2-(pyridin-2-yl)quinolin-3-yl)ethylamino)-pyrimidine-5-carbonitrile]			
5160 nM	1985	> 10000 nM	2.6 nM	620 nM	238	5 nM	652 nM	> 10000 nM	> 10000 nM	251	C[C@H](Nc1ncnc(N)c1C#N)c1nc2cccc(Cl)c2nc1-c1ccccc1S(C)(=O)=O [Example 5, (S)-4-amino-6-((1-(5-chloro-3-(2-(methylsulfonyl)phenyl)quinoxalin-2-yl)-ethyl)amino)pyrimidine-5-carbonitrile]	0.056 uM	0.012 uM	
25000 nM	3571	11000 nM	7 nM	2800 nM	400	6 nM	5800 nM		> 10000 nM	829	C[C@H](Nc1ncnc(N)c1C#N)c1nc2cccc(C#N)c2nc1-c1ccccc1S(C)(=O)=O [Example 6, 2-((S)-1-(6-amino-5-cyanopyrimidin-4-ylamino)ethyl)-3-(2-(methylsulfonyl)-phenyl)quinoxaline-5-carbonitrile]	0.13 (WB) uM		
											Cc1ccccc1-n1c(Cn2cnc3c(N)ncnc32)nc2cccc(C)c2c1=O [IC87114]			activity against any protein kinases tested [13]: no activity; inhibits p110δ [14]: high nanomolar range (triple digit); selectivity against p110α ([14]; delta versus p110α): greater than 100 fold; selective against p110β ([14]; delta versus p110β): 52 fold; selectivity against p110γ ([14]; delta versus p110γ): approx. 8 fold; inflammation and disease in a murine model of asthma [15]: significantly ameliorate inflammation and disease
